Laboratory results reported in patent publication US20230255943A1, “MMP-9 AND MMP-12 INHIBITION FOR TREATING SPINAL CORD INJURY OR RELATED INJURY TO NEUROLOGICAL TISSUE” (The University of Birmingham, priority 2020, published 2023).

Key:
MMP-9 = target: T1, MMP-9 (Mus musculus, UniProt P41245); assay: MMP-9 enzyme activity after SCI in mice (SensoLyte 520 fluorimetric assay); type: in vivo; conditions: for suppression of MMP-9 activity in CSF / suppression of MMP-9 activity in serum / suppression of MMP-9 activity in spinal cord tissues: DC injury; for suppression of MMP-9 activity in spinal cord tissues: lowest most effective dose; for lowest most effective dose: suppression of MMP-9 and MMP-12 activity
T1 construct: from tissue; host or cells: mouse spinal cord lesion site homogenate, serum and CSF
Protocol: For oral delivery of AZD1236, n=6 adult male C57BL6 mice/group (Charles River, Margate, UK) were randomly allocated to either: (1), Sham (control; partial laminectomy but no DC crush injury); (2), DC crush injury+vehicle (partial laminectomy followed by DC crush injury and injection of vehicle); (3), DC crush injury+100 mg/kg AZD1236; (4), DC crush injury+200 mg/kg AZD1236; and (5), DC crush injury+300 mg/kg AZD1236. For intrathecal (it) delivery of AZD1236, adult male C57BL6 mice (25-30 g) (Charles River, Margate, UK) were randomly allocated to either: (1), Sham (control; partial laminectomy but no DC crush injury); (2), DC crush injury+vehicle (partial laminectomy followed by DC crush injury and injection of vehicle); (3), DC crush injury+2.5 mg/kg AZD1236; (4), DC crush injury+5 mg/kg AZD1236; and (5), DC crush injury+10 mg/kg AZD1236. For intrathecal delivery an indwelling atlanto-occipital intrathecal catheter was inserted into the intrathecal space, as described previously (F. A. Oladosu, B. P. Ciszek, S. C. O'Buckley, A. G. Nackley, Novel intrathecal and subcutaneous catheter delivery systems in the mouse. J Neurosci Methods 264, 119-128 (2016)). Briefly, with mice in the sternal recumbency a small incision was made at the nape of the neck followed by detachment of the muscles on either side of the external occipital crest to expose the A-O membrane. The membrane was incised and a 6 cm Alzet mouse intrathecal catheter (Alzet, Cupertino, Calif., USA) and polyurethane segments were gently guided 2.5 cm into the intrathecal space. The catheter was secured using 4-0 silk sutures (Oasis Medical, IL) and the exposed end of the catheter was sealed off with a stainless-steel plug and affixed to the upper back. Animals were injected immediately with vehicle or AZD1236 followed by a 10 μl PBS catheter flush. Injections were repeated every twice daily for the first 3 days after injury and drugs and vehicle reagents were delivered over 1 min time period using a Hamilton microlitre syringe (Hamilton Co, USA). Where specified intact animals with no surgical procedures were also used. All lesions were administered under 5% isofluorane induced inhalation anaesthesia, with 1.51/min O2. Pre- and post-injury analgesia was also provided.
DC crush injury was administered bilaterally at the T8 vertebral level as described previously (S. Surey, M. Berry, A. Logan, R. Bicknell, Z. Ahmed, Differential cavitation, angiogenesis and wound-healing responses in injured mouse and rat spinal cords. Neuroscience 275, 62-80 (2014); M. L. Read, S. Mir, R. Spice, R. J. Seabright, E. L. Suggate, Z. Ahmed, M. Berry, A. Logan, Profiling RNA interference (RNAi)-mediated toxicity in neural cultures for effective short interfering RNA design. J Gene Med 11, 523-534 (2009)). Briefly, calibrated watchmaker's forceps were separated by 0.5 mm and inserted through the dorsal cord meninges to a depth of 0.45 mm in mice and separated by 1 mm and inserted through the dorsal cord meninges to a depth of 1.0 mm in rats, and the DC were crushed for 3 seconds. AZD1236 or vehicle was administered twice daily by oral gavage or intrathecally, either immediately for the first 3 days or 24 hours after injury and treating twice daily until day 4 (i.e. 3 days of AZD1236 dosing). All experiments were performed with n=6 mice/group and repeated on at least 2-3 independent occasions (total=12-18 animals/group/test).
CC SCI was administered at the T7-T8 vertebral level after exposure of T6-T9 by laminectomy. […]

[1] = system: mice with DC crush injury; assay: Horizontal ladder test (locomotor function) after DC injury in mice; type: in vivo, mouse
Protocol: Functional testing after DC lesion and treatment was carried out as described previously (N. D. Fagoe, C. L. Attwell, R. Eggers, L. Tuinenbreijer, D. Kouwenhoven, J. Verhaagen, M. R. Mason, Evaluation of Five Tests for Sensitivity to Functional Deficits following Cervical or Thoracic Dorsal Column Transection in the Rat. PLoS One 11, e0150141 (2016)).
Briefly, animals (n=18/group) were first trained to master traversing a horizontal ladder for 1 w before functional testing. Baseline parameters were established by performing tests at 2-3d before injury. Animals were then tested at 2d, 1 w, 2 w, 3 w, 4 w, 5 w and 6 w after DC injury+treatment. Experiments were performed by an observer masked to the treatment conditions in the same order and time of day with each test performed for 3 individual trials.
Horizontal ladder test: This tests the animals locomotor function and is performed on a 0.9-meter-long horizontal ladder with a diameter of 15.5 cm and randomly adjusted rungs with variable gaps of 3.5-5.0 cm. Animals were assessed traversing the ladder and the left and right rear paw slips were recorded along with the total number of steps and the mean error rate as: the number of slips/total number of steps.

MMP-2 = target: T2, MMP-2 (Mus musculus, UniProt P33434); assay: MMP-2 activity after DC injury and AZD1236 administration; type: in vivo; conditions: oral and intrathecal, effective dose
T2 construct: from tissue

[2] = optimal doses, 24 h delay vs immediate

T1 sequence (P41245 108-730): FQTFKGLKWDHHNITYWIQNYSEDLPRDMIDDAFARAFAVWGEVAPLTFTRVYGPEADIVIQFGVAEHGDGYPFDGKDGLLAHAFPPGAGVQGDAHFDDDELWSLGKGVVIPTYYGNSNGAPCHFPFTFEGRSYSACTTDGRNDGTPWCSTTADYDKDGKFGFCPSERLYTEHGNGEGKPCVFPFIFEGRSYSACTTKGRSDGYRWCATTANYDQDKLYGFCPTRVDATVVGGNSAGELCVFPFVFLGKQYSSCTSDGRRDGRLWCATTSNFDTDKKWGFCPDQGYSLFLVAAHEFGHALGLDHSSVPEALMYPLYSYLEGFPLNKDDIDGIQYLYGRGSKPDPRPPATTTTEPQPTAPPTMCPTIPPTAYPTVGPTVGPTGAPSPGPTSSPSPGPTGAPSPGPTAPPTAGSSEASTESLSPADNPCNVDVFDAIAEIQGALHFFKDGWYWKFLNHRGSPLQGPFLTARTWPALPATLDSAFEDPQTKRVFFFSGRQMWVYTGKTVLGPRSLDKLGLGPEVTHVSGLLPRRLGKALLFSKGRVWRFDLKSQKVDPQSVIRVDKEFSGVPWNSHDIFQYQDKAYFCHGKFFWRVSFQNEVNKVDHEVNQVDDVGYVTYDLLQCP
T2 sequence (P33434 110-662): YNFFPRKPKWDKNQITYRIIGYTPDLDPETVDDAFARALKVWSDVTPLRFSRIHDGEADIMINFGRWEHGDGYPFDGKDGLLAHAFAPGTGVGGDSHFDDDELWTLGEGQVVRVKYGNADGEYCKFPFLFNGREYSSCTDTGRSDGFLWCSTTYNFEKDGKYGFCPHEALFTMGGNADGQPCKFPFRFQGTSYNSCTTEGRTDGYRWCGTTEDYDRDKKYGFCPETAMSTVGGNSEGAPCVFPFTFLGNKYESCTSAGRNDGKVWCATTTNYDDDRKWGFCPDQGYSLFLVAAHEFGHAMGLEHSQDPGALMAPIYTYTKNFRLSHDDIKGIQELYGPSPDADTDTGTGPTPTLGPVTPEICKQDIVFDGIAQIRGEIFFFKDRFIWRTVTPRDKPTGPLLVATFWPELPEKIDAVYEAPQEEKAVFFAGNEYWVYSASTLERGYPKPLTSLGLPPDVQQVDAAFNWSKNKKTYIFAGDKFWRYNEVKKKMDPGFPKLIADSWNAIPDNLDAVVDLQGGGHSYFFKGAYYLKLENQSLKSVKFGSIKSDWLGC

## C[C@]1(CS(=O)(=O)N2CC=C(C#Cc3cnc(C4CC4)nc3)CC2)NC(=O)NC1=O [AZD1236]
MMP-9; intrathecal delivery
  suppression of MMP-9 activity in CSF: 88±2%
  suppression of MMP-9 activity in serum: 71±2%
MMP-9; intrathecal
  suppression of MMP-9 activity in spinal cord tissues: 87±5%
MMP-9; oral delivery, 200 mg/kg
  suppression of MMP-9 activity in CSF: 74±2%
  suppression of MMP-9 activity in serum: 90±2%
MMP-9; oral
  suppression of MMP-9 activity in spinal cord tissues: 88±4%
MMP-9; injury site, oral dosing withdrawn after 3 d
  time for MMP-9 activity to return to DC+Vehicle injury levels after withdrawal: 4 days
MMP-9; intrathecal injection
  lowest most effective dose: 5 mg/kg
MMP-9; [2]
  MMP-9 activity, 24-h delayed treatment: equally as effective as immediate delivery
MMP-9; oral administration
  lowest most effective dose: 200 mg/kg
[1]; [2]
  locomotor function, 24-h delayed treatment: equally as effective as immediate delivery
[1]; oral
  improvement in locomotor function: 85%
[1]; oral, by 2 weeks after injury
  mean error ratio, ladder crossing test: indistinguishable from sham-treated animals
MMP-2
  DC injury-induced rise in MMP-2 activity: no difference
